Laboratory results from article PMC11183791, “Vancomycin population pharmacokinetics and dosing proposal for the initial treatment in obese adult patients” (Frontiers in Pharmacology, 2024).
In brackets after ≈: the same amount, converted by molar mass.

Columns and labels:
[1] = Vancomycin trough serum levels after loading dose with and without the guidance of clinical pharmacists (TDM, KIMS immunoturbidimetry); format: in vivo, human
Protocol: The lower limits of detection and quantitation were 1.5 and 4.0 mg/L, respectively, and the measuring range was from 4.0 to 80.0 mg/L. Only levels measured during initial vancomycin therapy (first 3 days of treatment) were included in the PK analysis. If available, the MIC value of vancomycin for the isolated bacterial strain was also recorded.
Vancomycin t1/2 was calculated from Vd and clearance (CL) values using the following formula: t1/2 = 0.693 × Vd/CL. Descriptive parameter medians and interquartile range (IQR) were calculated using MS Excel 2013 (Microsoft Corporation, Redmond, United States). The Mann–Whitney U-test was used to compare vancomycin loading doses (LDs)with and without the guidance of clinical pharmacists and compare trough levels reached after loading dose administration. The linear regression model was used to evaluate the relationships between vancomycin PK parameters (Vd and CL) and continuous variables (BW, LBM, BSA, BMI, creatinine, and cystatin C-based eGFR). GraphPad Prism software version 8.2.1 (GraphPad Inc., La Jolla, CA, USA) was used for all comparisons, and p-levels <0.05 were considered statistically significant.

[2] = system: isolated bacterial strain (Staphylococcus spp., Enterococcus spp., Klebsiella pneumoniae, Streptococcus agalactiae); settings: isolated bacterial strains of the study patients
[3] = cited from earlier work
[4] = bootstrap analysis, 250 replicates
[5] = obese adults (BMI ≥30 kg/m^2), n = 138, iv infusion, first 3 days of treatment, one-compartment model

With `CN[C@H](CC(C)C)C(=O)N[C@H]1C(=O)N[C@@H](CC(N)=O)C(=O)N[C@H]2C(=O)N[C@H]3C(=O)N[C@H](C(=O)N[C@H](C(=O)O)c4cc(O)cc(O)c4-c4cc3ccc4O)[C@H](O)c3ccc(c(Cl)c3)Oc3cc2cc(c3O[C@@H]2O[C@H](CO)[C@@H](O)[C@H](O)[C@H]2O[C@H]2C[C@](C)(N)[C@H](O)[C@H](C)O2)Oc2ccc(cc2Cl)[C@H]1O` [vancomycin, Vancomycin] the “median trough level after LD relative to the recommended therapeutic range (15–20 mg/L)” value ([1]; LD with the guidance of clinical pharmacists) was “in”, the “median trough level after LD relative to the recommended therapeutic range (15–20 mg/L)” value ([1]; LD without the guidance of clinical pharmacists) was “out of the recommended therapeutic range” and the “CL_pop, bootstrap median (95% CI)” value [4] was 1.27 (1.24–1.31) L/h. For the same compound, the “Vd_pop, bootstrap median (95% CI)” value [4] was 79.3 (77.8–80.9) L, the “β_CL_LBM, bootstrap median (95% CI)” value [4] was 0.011 (0.0108–0.0113) kg and the “β_CL_eGFR, bootstrap median (95% CI)” value [4] was 0.61 (0.60–0.63) mL/s/1.73 m^2. For the same compound, the “CL, median (interquartile range) of individual estimates (conditional modes)” value [5] was 6.65 (4.95–8.42) L/h, the “Vd, median (interquartile range) of individual estimates (conditional modes)” value [5] was 74.0 (70.5–75.4) L and the “elimination half-life t1/2, median (interquartile range) of individual estimates” value (obese adults, n = 138, t1/2 = 0.693 × Vd/CL) was 7.7 (6.0–10.0) h. For the same compound, the “t1/2 corresponding to estimated CL and Vd of 75 L” value (patient with LBM of 68 kg and eGFR of 1.51 mL/s/1.73 m^2) was 7.4 h, the “CL estimated from the final covariate equation” value (patient with LBM of 68 kg and eGFR of 1.51 mL/s/1.73 m^2 (median values of the study population)) was 7 L/h and the “Vd_pop, final model estimate” value (typical value of parameter, final covariate population PK model, obese adults) was 75.0 L. For the same compound, the “CL_pop, final model estimate” value (typical value, CL=CL_pop×e^(β_CL_eGFR×eGFR)×e^(β_CL_LBM×LBM)) was 1.32 L/h, the “MIC, median (min–max)” value [2] was 1 (≤0.5–2) mg/L and the “MIC, modus” value [2] was 1 µg/mL (≈ 0.69 µM). The “elimination half-life (t1/2)” value ([3]; can be prolonged in renal insufficiency, ref Rybak, 2006) was 6 to 12 h, the distribution half-life ([3]; ref Matzke et al., 1986) was “approximately 7 min” and the distribution phase duration ([3]; ref Matzke et al., 1986) was “approximately 0.5 h”. For the same compound, the “absorption after oral administration” value ([3]; ref Rybak et al., 2009) was “not absorbed efficiently”, the “portion of dose excreted unchanged via glomerular filtration” value ([3]; ref Rybak, 2006) was “majority” and the “contribution of the distribution phase to total vancomycin exposure” value ([3]; ref Shingde et al., 2019) was less than 10%.
